Experimental data from patent publication US6497896B2, “Method for administering camptothecins via injection of a pharmaceutical composition comprising microdroplets containing a camptothecin” (priority 2001, dated 2002).
Like-named read-outs stand apart in the source and are kept apart here.

Legend:
[1] = tested on: A375 human melanoma xenograft; details: for survivors (FIG. 10 comparison): I.P.
Description: The following study evaluates two intravenous formulations according to the present invention against human tumor xenografts in athymic nude mice. […] Examples 1 and 2 describe the compositions of IDD-P (FIG. 1; formulation 1-F) and IDD-D respectively.
Husbandry: Female nude mice were 16 weeks of age (NCR-nufBr; Taconic Farms) for the A375 study. The mice were fed ad libitum water (reverse osmosis, 1 ppm C1) and autoclaved Prolab NIH-31 M/5% Rodent Diet consisting of 18% protein, 5% fat, 6% fiber, and 8% ash. Mice were housed in static microisolators on a 12-hour light cycle at 21-22° C. (70-72° F.) and 40%-60% humidity. The animal care and use program is AAALAC International accredited and specifically follows and complies with the recommendation of the National Research Council's Guidefor the Care and Use of Laboratory Animals.
Tumor Implantation: An A375 melanoma fragment (1 mm 3) was implanted subcutaneously in the flank of each nude mouse. When the tumors reached the 60-112 mg size range, the mice were sorted into treatment groups (on Day 1) such that the group mean tumor sizes ranged from 71.3 mg-72.5 mg. Estimated tumor weight was calculated using the formula: [formula]
CAMPTOSAR®, DTIC®, and HYCAMTIN® were obtained as the marketed drugs and solutions were prepared fresh on the day of dosing. CAMPTOSAR® (irinotecan, Phannacia & Upjohn Company, 20 mg/ml) and DTIC® (dacarbazine, Bayer Corporation, 20 mg/ml) were diluted with D5W. HYCAMTIN® (topotecan, SmithKlein Beecham) was reconstituted with water at 1 mg/ml.
Treatments: Volumes of 0.20 ml per 20-g mouse, body-weight adjusted, were administered once daily. Tumor-bearing athymic nude mice were matched on Day 1 into 13 groups of ten animals and drug administration was initiated. […] Three reference drugs were administered I.P.: CAMPTOSAR® was given in three doses at weekly intervals (qwk×3); HYCAMTIN® was given in four doses at four-day intervals (q4d×4); and DTIC® was given in five consecutive daily doses (qd×5). The tumor growth control group for these reference treatments received no treatment (Group 1).
Tumor Growth Endpoint: The tumor growth delay (TGD) method was used to assess efficacy. Tumor dimensions were measured twice weekly until the experiment was terminated on Day 62. Each animal was euthanized as a “cancer death” when its A375 melanoma reached a size of 2.0 g. Mean Day of Survival (MDS) values for all groups were based on the calculated day of death of each mouse, which is given by the formula: [formula]
TGD values, which represent treatment-effected extensions of survival time, were calculated from MDStreated−MDScontrol, the difference in MDS value for a given treatment group and the MDS value for A375 melanoma-bearing mice that received no treatment or the corresponding vehicle.
At the termination of the experiment on Day 62, treatment responses in survivors were classified as either complete tumor regression (CR), partial tumor regression (PR), or stable/progressive disease (SD/PD). A CR response indicates the absence of measurable tumor. In a PR response, the final tumor weight is lower than on Day 1 but larger than 0 mg. In a SD/PD response, mice survived to Day 62 with a progressively growing or stable tumor size that had not reached the 2.0-g endpoint.
Evaluation of Toxicity: The maximum tolerated dose (MTD), as defined by the NCI, is the highest dose at which no more than 10% of the animals die and the group mean body-weight loss is no more than 20%. Body weights were measured daily for four or five days and then twice weekly thereafter until the experiments were terminated on Day 62 of the study. The animals were also examined frequently for clinical signs of any adverse, drug-related side effects. Because mice are not tagged for MTD studies, only the mean group body weights recorded in the appended raw data are significant in those studies.

[2] = cited from earlier work
[3] = molecular target: human serum albumin (HSA) (Homo sapiens, UniProt P02768); details: PBS at pH 7.4; cited from earlier work
Chain of human serum albumin (HSA) (P02768 25-609): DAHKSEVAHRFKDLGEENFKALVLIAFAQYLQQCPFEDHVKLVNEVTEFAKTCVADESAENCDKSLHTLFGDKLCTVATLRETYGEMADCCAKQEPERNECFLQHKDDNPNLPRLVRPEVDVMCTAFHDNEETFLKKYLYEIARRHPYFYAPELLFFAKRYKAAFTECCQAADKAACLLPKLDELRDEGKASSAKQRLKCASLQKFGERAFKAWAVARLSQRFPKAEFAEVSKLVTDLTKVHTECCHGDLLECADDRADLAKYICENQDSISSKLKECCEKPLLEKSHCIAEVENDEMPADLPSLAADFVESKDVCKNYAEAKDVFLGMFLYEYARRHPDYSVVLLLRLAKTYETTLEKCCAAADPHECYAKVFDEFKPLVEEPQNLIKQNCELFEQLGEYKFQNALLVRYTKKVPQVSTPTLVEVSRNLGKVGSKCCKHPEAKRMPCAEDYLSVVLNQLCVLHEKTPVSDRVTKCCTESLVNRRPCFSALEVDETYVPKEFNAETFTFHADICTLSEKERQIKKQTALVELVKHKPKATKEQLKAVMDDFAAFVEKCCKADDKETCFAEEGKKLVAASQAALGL

[4] = human plasma, pH 7.4, 37° C.; cited from earlier work
[5] = whole blood; cited from earlier work
[6] = in 3% DMA 2.0 mg/kg p.o., q3d×4
[7] = in 3% DMA 4.0 mg/kg p.o., q3d×4

SMILES: CN(C)/N=N/c1[nH]cnc1C(N)=O [DTIC®, dacarbazine]
- mean day of survival (MDS) ([1]; 150 mg/kg I.P., qd×5, Group 7 (n=8)): 37.6 days
- tumor growth delay (TGD) ([1]; 150 mg/kg I.P., qd×5, vs untreated Group 1, not statistically significant): 7.3 days
- survivors (FIG. 10 comparison) ([1]; optimal regimen (150 mg/kg qd×5)): 10%

SMILES: CCc1c2c(nc3ccc(OC(=O)N4CCC(N5CCCCC5)CC4)cc13)-c1cc3c(c(=O)n1C2)COC(=O)[C@]3(O)CC [CAMPTOSAR®, irinotecan]
- 62-day survivors (number of 10 mice) ([1]; 100 mg/kg I.P., qwk×3): one
- mean day of survival (MDS) ([1]; 100 mg/kg I.P., qwk×3, Group 5 (n=9)): 47.3 days
- tumor growth delay (TGD) ([1]; 100 mg/kg I.P., qwk×3, vs untreated Group 1): 17 days
- survivors (FIG. 10 comparison) ([1]; optimal regimen (100 mg/kg qwk×3)): 0%

SMILES: CC[C@@]1(O)C(=O)OCc2c1cc1n(c2=O)Cc2cc3c([N+](=O)[O-])cccc3nc2-1 [9-nitro-camptothecin, 9-nitro-20(S)-camptothecin]
- CR responses, share of mice ([1]; 2 mg/kg p.o., q3d×4): 40%
- CR responses, share of mice ([1]; 4 mg/kg p.o., q3d×4): 40%
- 62-day survival rate [1, 6]: 70%
- 62-day survivors (number of 10 mice) [1, 6]: seven
- CR responses on Day 62 [1, 6]: 4
- PR responses on Day 62 [1, 6]: 1
- SD/PD responses on Day 62 [1, 6]: 2
- tolerability [1, 6]: well tolerated
- mean day of survival (MDS) ([1]; in 3% DMA 2.0 mg/kg p.o., q3d×4, Group 13 (n=3)): 47.6 days
- tumor growth delay (TGD) ([1]; in 3% DMA 2.0 mg/kg p.o., q3d×4, vs vehicle control Group 4): 21.6 days
- 62-day survival rate [1, 7]: 70%
- 62-day survivors (number of 10 mice) [1, 7]: seven
- CR responses on Day 62 [1, 7]: 4
- SD/PD responses on Day 62 [1, 7]: 3
- tolerability [1, 7]: well tolerated
- mean day of survival (MDS) ([1]; in 3% DMA 4.0 mg/kg p.o., q3d×4, Group 12 (n=3)): 45.3 days
- tumor growth delay (TGD) ([1]; in 3% DMA 4.0 mg/kg p.o., q3d×4, vs vehicle control Group 4): 19.3 days

SMILES: CC[C@@](O)(C(=O)[O-])c1cc2n(c(=O)c1CO)Cc1cc3ccccc3nc1-2.[Na+] [Sodium camptothecin]
- side effects ([2]; administered via i.v.): unpredictable side effects such as myelosuppression and hemorrhagic cystitis
- antitumor activity in clinical trials ([2]; solubilized by sodium hydroxide in water, early 70's): antitumor activity

SMILES: CC[C@@]1(O)C(=O)OCc2c1cc1n(c2=O)Cc2cc3c(CN(C)C)c(O)ccc3nc2-1 [HYCAMTIN®, topotecan]
- 62-day survivors (number of 10 mice) ([1]; 10 mg/kg I.P., q4d×4): one
- mean day of survival (MDS) ([1]; 10 mg/kg I.P., q4d×4, Group 6 (n=9)): 46.7 days
- tumor growth delay (TGD) ([1]; 10 mg/kg I.P., q4d×4, vs untreated Group 1): 16.4 days
- survivors (FIG. 10 comparison) ([1]; optimal regimen (10 mg/kg q4d×4)): 0%

SMILES: CC[C@@]1(O)C(=O)OCc2c1cc1n(c2=O)Cc2cc3ccccc3nc2-1 [camptothecin, 20(S)-camptothecin]
- affinity of HSA for carboxylate form versus α-hydroxy lactone form [3]: 150 fold
- % α-hydroxy lactone at equilibrium [4]: 0.2%
- half-life of lactone ring opening [4]: 11 min
- equilibrium α-hydroxy lactone concentration [5]: 5.3%
- half-life of lactone [5]: 22 min
